According to paper PMC11555526, “Development of 2-Aminoadenine-Based Proteolysis-Targeting Chimeras (PROTACs) as Novel Potent Degraders of Monopolar Spindle 1 and Aurora Kinases” (ACS Pharmacology & Translational Science, 2024):
Values joined by “and” are separate entries in the source; they are usually repeats but may differ in a detail not shown here. Identical values can stand only once. Like-named read-outs stand apart in the source and are kept apart here.

Columns and labels:
MV4-11 cells (naive) = assay: alamarBlue cell viability assay; type: cell-based, human
Experimental: Finally, to study the effect of the compounds on cancer cell survival, MV4-11 cells were treated with various concentrations of the chimeras and the cell viability was assessed after 72 h. […] As opposed to the parent inhibitor MPS1-IN-3, its derivatives except 40 were not cytotoxic (Figure S7B, Table 5). […] In addition, most of the SF1-based derivatives affected the viability of MV4-11 cells in nanomolar concentrations (Table 5).
For the alamarBlue cell viability assay, cells were seeded in 96-well plates and treated with indicated concentrations of the compounds or vehicle. A few hours before the experimental end point (72 h, unless otherwise stated), the cells were incubated with the alamarBlue reagent. Finally, fluorescence (excitation: 550 nm and emission: 600 nm) or absorbance (570 nm with reference at 600 nm) was measured on a Tecan Spark Multiplate reader (Tecan).

[1] = molecular target: T1, AURKB (MV4-11^AURKB-HiBiT cells) (Homo sapiens, UniProt Q96GD4); assay: HiBiT assay, AURKB degradation; type: cell-based; set-up: key to Dmax (maximal degradation) AURKB: compounds with degradation less than 15% reported as “inactive”; settings: 6 h treatment; for DC50: read-out: DC50 (half-maximal degradation concentration) AURKB
T1 construct: expressed in transfected cells; host or cells: MV4-11, lentiviral transduction (pRRL-PGK vector)
T1 sequence (Q96GD4 1-345 isoform Q96GD4-5): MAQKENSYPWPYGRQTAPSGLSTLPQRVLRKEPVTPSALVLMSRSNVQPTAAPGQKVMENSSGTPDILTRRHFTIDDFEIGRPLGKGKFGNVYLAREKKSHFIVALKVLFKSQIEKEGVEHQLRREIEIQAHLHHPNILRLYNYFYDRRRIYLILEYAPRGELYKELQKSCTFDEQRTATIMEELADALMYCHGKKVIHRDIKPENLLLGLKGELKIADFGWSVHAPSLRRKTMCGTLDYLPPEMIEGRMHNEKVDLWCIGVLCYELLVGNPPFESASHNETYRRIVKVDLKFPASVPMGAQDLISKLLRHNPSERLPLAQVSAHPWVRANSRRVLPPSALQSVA
Experimental: (§1) The effects of the synthesized compounds on AURKA, AURKB, and TTK mitotic kinases were then assessed in cellular systems. For this, HiBiT cell lines were generated for all three mitotic kinases. A small 11 amino acid peptide fragment of luciferase (HiBiT) was fused to the coding sequence of the proteins and stably transduced in the MV4-11 cell line (MV4-11^AURKA-HiBiT, MV4-11^AURKB-HiBiT, and MV4-11^HiBiT-TTK).
(§2) The stable cell lines MV4-11^AURKA-HiBiT, MV4-11^AURKB-HiBiT, and MV4-11^HiBiT-TTK cells were generated by lentiviral infection. Lentivirus was produced using the respective HiBiT vector, plasmids psPAX2, and pMD2.G in HEK293 cells. The virus supernatant was filtered and MV4-11 cells were doubly infected with the supernatant. The cells were selected after 48 h of infection until the control cells were dead to get the stable cell line.
(§3) The cells stably expressing HiBiT-tagged protein were seeded into 96-well plates and treated with serial dilutions of compounds for the indicated time points. At the end point, the assay was performed using the Nano-Glo HiBiT Lytic Detection System (Promega) according to the manufacturer’s instruction. Luminescence was measured on a GloMax 96 Microplate Luminometer (Promega) or a Tecan Spark Multiplate reader (Tecan). DC50 was calculated using concentrations showing sigmoidal behavior with the dose–response (four parameters) equation in Prism (GraphPad).

[2] = molecular target: T2, AURKA (MV4-11^AURKA-HiBiT cells) (Homo sapiens, UniProt O14965); assay: HiBiT assay, AURKA degradation; type: cell-based; settings: for DC50: read-out: DC50 (half-maximal degradation concentration) AURKA
T2 construct: expressed in transfected cells; host or cells: MV4-11, lentiviral transduction
T2 sequence (O14965 1-403): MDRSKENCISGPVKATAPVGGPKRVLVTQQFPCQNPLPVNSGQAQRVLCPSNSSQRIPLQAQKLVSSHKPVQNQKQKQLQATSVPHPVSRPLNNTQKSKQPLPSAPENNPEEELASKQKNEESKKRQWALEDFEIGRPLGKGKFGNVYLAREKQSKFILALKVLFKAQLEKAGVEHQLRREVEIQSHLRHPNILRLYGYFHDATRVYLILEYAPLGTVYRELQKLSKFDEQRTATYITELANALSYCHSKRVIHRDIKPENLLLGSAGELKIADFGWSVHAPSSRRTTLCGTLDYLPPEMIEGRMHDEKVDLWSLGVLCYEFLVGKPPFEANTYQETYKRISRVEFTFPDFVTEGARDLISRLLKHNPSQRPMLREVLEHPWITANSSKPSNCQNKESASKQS
Experimental: as §1, §2, §3

[3] = molecular target: T3, TTK (MV4-11^HiBiT-TTK cells) (Homo sapiens, UniProt P33981); assay: HiBiT assay, TTK degradation; type: cell-based; set-up: key to Dmax (maximal degradation) TTK: compounds with degradation less than 15% reported as “inactive”; settings: for Dmax (maximal degradation) TTK / DC50 / DC50 (half-maximal degradation concentration) TTK: 6 h treatment, MV4-11^HiBiT-TTK cells; for DC50: read-out: DC50 (half-maximal degradation concentration) TTK
T3 construct: expressed in transfected cells; host or cells: MV4-11, lentiviral transduction (pRRL-PGK-HiBiT entry vector)
T3 sequence (P33981 1-857): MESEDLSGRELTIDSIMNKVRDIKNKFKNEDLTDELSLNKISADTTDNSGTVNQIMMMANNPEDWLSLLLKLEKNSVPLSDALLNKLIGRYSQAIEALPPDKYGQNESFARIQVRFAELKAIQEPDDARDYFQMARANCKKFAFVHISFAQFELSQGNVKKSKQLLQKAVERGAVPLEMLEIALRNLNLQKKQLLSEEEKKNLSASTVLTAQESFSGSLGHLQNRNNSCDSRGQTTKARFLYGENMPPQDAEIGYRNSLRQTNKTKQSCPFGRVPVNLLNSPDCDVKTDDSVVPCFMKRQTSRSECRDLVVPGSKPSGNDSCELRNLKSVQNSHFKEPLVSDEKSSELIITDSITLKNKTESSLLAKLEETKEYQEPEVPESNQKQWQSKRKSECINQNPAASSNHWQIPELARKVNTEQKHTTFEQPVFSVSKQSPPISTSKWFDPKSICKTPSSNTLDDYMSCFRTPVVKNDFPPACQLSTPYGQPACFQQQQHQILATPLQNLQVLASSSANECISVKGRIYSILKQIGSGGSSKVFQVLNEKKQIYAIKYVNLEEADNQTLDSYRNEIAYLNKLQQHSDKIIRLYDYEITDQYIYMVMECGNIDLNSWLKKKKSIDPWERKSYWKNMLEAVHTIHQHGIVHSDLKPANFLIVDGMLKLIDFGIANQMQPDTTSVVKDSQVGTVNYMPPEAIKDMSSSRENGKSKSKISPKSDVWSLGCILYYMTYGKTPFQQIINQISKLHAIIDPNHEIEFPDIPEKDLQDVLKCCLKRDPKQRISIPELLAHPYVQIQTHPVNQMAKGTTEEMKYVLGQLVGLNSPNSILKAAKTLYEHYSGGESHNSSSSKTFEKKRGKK
Experimental: as §1, §2, §3

[4] = 72 h treatment, MV4-11 cells (naive), read-out: EC50 (concentration that decreases cell viability by 50%)
[5] = 6 h treatment, MV4-11^AURKA-HiBiT cells
[6] = 72 h, MV4-11 cells, read-out: EC50 cytotoxicity

| Structure (SMILES) | EC50 (MV4-11 cells (naive); [4]) | Dmax (maximal degradation) AURKB [1] | DC50 [1] | Dmax (maximal degradation) AURKA [2, 5] | DC50 [2, 5] | Dmax (maximal degradation) TTK [3] | DC50 [3] | selectivity of AURKA degradation (DC50) relative to TTK ([2]; HiBiT, 6 h) | DC50 (half-maximal degradation concentration) AURKB [1] | DC50 (half-maximal degradation concentration) TTK [3] | EC50 (MV4-11 cells (naive); [6]) | EC50 (concentration that decreases cell viability by 50%) (MV4-11 cells (naive); 72 h treatment, MV4-11 cells (naive)) | fold lower activity (DC50) against TTK in comparison to degrader 19 ([3]; HiBiT, 6 h) | DC50 (half-maximal degradation concentration) AURKA [2, 5] |
| --- | --- | --- | --- | --- | --- | --- | --- | --- | --- | --- | --- | --- | --- | --- |
| O=C1CCC(N2C(=O)c3cccc(NC(=O)CCCC(=O)N4CCN(c5ccc(Nc6nc(NC7CCCCC7)c7nc[nH]c7n6)cc5)CC4)c3C2=O)C(=O)N1 (stereo not drawn) [Compound 13] | 1210 nM | 30.60% | 380 nM | 68.40% | 94 nM | 27.70% | 3 nM |  |  |  |  |  |  |  |
| CC(C)S(=O)(=O)c1ccccc1Nc1nc(Nc2ccc(N3CCN(C(=O)CCC(=O)Nc4cccc5c4C(=O)N(C4CCC(=O)NC4=O)C5=O)CC3)cc2)nc2[nH]cnc12 (stereo not drawn) [Compound 15] | 39 nM | 33.15% | 154 nM | 74.55% | 2.05 nM | 35.20% | 42 nM | 21 fold |  |  |  |  |  |  |
| O=C1CCC(N2C(=O)c3cccc(NC(=O)COCCOCC(=O)N4CCN(c5ccc(Nc6nc(NC7CCCCC7)c7nc[nH]c7n6)cc5)CC4)c3C2=O)C(=O)N1 (stereo not drawn) [Compound 17] | 506 nM | 36.10% | 598 nM | 68.90% | 239 nM | 39.40% | 66 nM |  |  |  |  |  |  |  |
| CC(C)S(=O)(=O)c1ccccc1Nc1nc(Nc2ccc(N3CCN(C(=O)COCCOCC(=O)Nc4cccc5c4C(=O)N(C4CCC(=O)NC4=O)C5=O)CC3)cc2)nc2[nH]cnc12 (stereo not drawn) [Compound 18] | 1130 nM | 22.20% |  | 62.10% | 1260 nM | inactive |  |  | – (compounds with degradation less than 25% were not calculated and reported as “–”) | – (compounds with degradation less than 25% were not calculated and reported as “–”) |  |  |  |  |
| O=C(CCCC(=O)Nc1cccc2c1C(=O)N(C1CCC(=O)NC1=O)C2=O)NCC(=O)N1CCN(c2ccc(Nc3nc(NC4CCCCC4)c4nc[nH]c4n3)cc2)CC1 (stereo not drawn) [Compound 19] | 1380 nM | 43.60% | 570 nM | 78.80% | 109 nM | 67% and 66.50% | 18 nM and 17.7 nM |  |  |  | 1400 nM |  |  |  |
| COc1cc(N2CCN(C(=O)CNC(=O)CCCC(=O)Nc3cccc4c3C(=O)N(C3CCC(=O)NC3=O)C4=O)CC2)ccc1Nc1nc(Nc2ccccc2S(=O)(=O)C(C)C)c2nc[nH]c2n1 (stereo not drawn) [Compound 21] |  | inactive |  | 59.30% | 56 nM | 41.90% | 26 nM |  | – (compounds with degradation less than 25% were not calculated and reported as “–”) |  |  | — (compounds with decrease of cell viability less than 50% were not calculated and reported as “—”) |  |  |
| CN1C(=O)CCC(N2C(=O)c3cccc(NC(=O)CCCC(=O)NCC(=O)N4CCN(c5ccc(Nc6nc(NC7CCCCC7)c7nc[nH]c7n6)cc5)CC4)c3C2=O)C1=O (stereo not drawn) [Compound 23] | 697 nM | 48.30% | 363 nM | 55.25% | 299 nM | 32.55% | 600 nM |  |  |  | 700 nM |  | 34 fold |  |
| CC(C)S(=O)(=O)c1ccccc1Nc1nc(Nc2ccc(N3CCN(C(=O)CNC(=O)CCCC(=O)Nc4cccc5c4C(=O)N(C4CCC(=O)N(C)C4=O)C5=O)CC3)cc2)nc2[nH]cnc12 (stereo not drawn) [Compound 24] | 618 nM | 20.40% |  | 17.00% |  | 16.95% |  |  | – (compounds with degradation less than 25% were not calculated and reported as “–”) | – (compounds with degradation less than 25% were not calculated and reported as “–”) |  |  |  | – (compounds with degradation less than 25% were not calculated and reported as “–”) |
| CC(C)S(=O)(=O)c1ccccc1Nc1nc(Nc2ccc(N3CCN(CC(=O)Nc4cccc5c4C(=O)N(C4CCC(=O)NC4=O)C5=O)CC3)cc2)nc2[nH]cnc12 (stereo not drawn) [Compound 26] | 57 nM | 33.40% | 2690 nM | 34.80% | 119 nM | 28.90% | 205 nM |  |  |  |  |  |  |  |
| CC(C)S(=O)(=O)c1ccccc1Nc1nc(Nc2ccc(N3CCN(CCCC(=O)Nc4cccc5c4C(=O)N(C4CCC(=O)NC4=O)C5=O)CC3)cc2)nc2[nH]cnc12 (stereo not drawn) [Compound 27] | 91 nM | 48.90% | 270 nM | 75.10% | 4.8 nM | 52.95% | 89.1 nM |  |  |  |  |  |  |  |
| CC(C)S(=O)(=O)c1ccccc1Nc1nc(Nc2ccc(N3CCN(CCCCC(=O)Nc4cccc5c4C(=O)N(C4CCC(=O)NC4=O)C5=O)CC3)cc2)nc2[nH]cnc12 (stereo not drawn) [Compound 28] | 126 nM | 45.95% | 273 nM | 69.70% | 4.85 nM | 59.05% | 84.5 nM |  |  |  |  |  |  |  |
